Source: PubChem BioAssay (NCI)
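Assay format: 96-well plates, 48-hour exposure. The concentration for 50% growth inhibition is given as GI50. TGI denotes the concentration required for complete inhibition of growth.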

Assays:
Test in all cases: inhibition of tumour cell growth, NCI panel, 48 h
PC-3 prostate = system: PC-3 prostate
NCI-H460 lung = system: NCI-H460 lung
RXF 393 renal = system: RXF 393 renal
MCF7 breast = system: MCF7 breast
HCC-2998 colon = system: HCC-2998 colon
UACC-62 melanoma = system: UACC-62 melanoma
U251 CNS = system: U251 CNS
COLO 205 colon = system: COLO 205 colon
MALME-3M melanoma = system: MALME-3M melanoma
SNB-19 CNS = system: SNB-19 CNS
IGROV1 ovarian = system: IGROV1 ovarian
A549 NSCLC = system: A549 NSCLC
EKVX NSCLC = system: EKVX NSCLC
OVCAR-5 ovarian = system: OVCAR-5 ovarian
786-0 renal = system: 786-0 renal
OVCAR-4 ovarian = system: OVCAR-4 ovarian
SW-620 colon = system: SW-620 colon
TK-10 renal = system: TK-10 renal
SF-295 CNS = system: SF-295 CNS
MDA-MB-231 breast = system: MDA-MB-231 breast
SN12C renal = system: SN12C renal
SF-268 CNS = system: SF-268 CNS
SK-MEL-2 melanoma = system: SK-MEL-2 melanoma
UO-31 renal = system: UO-31 renal
HL-60(TB) leukemia = system: HL-60(TB) leukemia
T-47D breast = system: T-47D breast
SK-OV-3 ovarian = system: SK-OV-3 ovarian
SNB-75 CNS = system: SNB-75 CNS
HCT-116 colon = system: HCT-116 colon

## COc1cc(/C=C/C(=O)c2cc(OC)c(OC)c(OC)c2)ccc1OCc1ccccc1
PC-3 prostate
  GI50: 3.16 µM
  TGI: > 100 µM
NCI-H460 lung
  GI50: 2.33 µM
  TGI: 6.16 µM
RXF 393 renal
  GI50: 2.18 µM
  TGI: 6.07 µM
MCF7 breast
  GI50: 2.53 µM
  TGI: > 100 µM
HCC-2998 colon
  GI50: 2.8 µM
  TGI: 7.91 µM
UACC-62 melanoma
  GI50: 1.82 µM
  TGI: 4.51 µM
U251 CNS
  GI50: 2.36 µM
  TGI: 7.5 µM
COLO 205 colon
  GI50: 3.34 µM
  TGI: 26.2 µM
MALME-3M melanoma
  GI50: 5.08 µM
  TGI: > 100 µM
SNB-19 CNS
  GI50: 2.64 µM
  TGI: 8.69 µM
IGROV1 ovarian
  GI50: 3.06 µM
  TGI: > 100 µM
A549 NSCLC
  GI50: 2.77 µM
  TGI: > 100 µM
EKVX NSCLC
  GI50: 4.33 µM
  TGI: 51.6 µM
OVCAR-5 ovarian
  GI50: 2.67 µM
  TGI: 13.7 µM
786-0 renal
  GI50: 4.71 µM
  TGI: > 100 µM
OVCAR-4 ovarian
  GI50: 2.84 µM
  TGI: > 100 µM
SW-620 colon
  GI50: 3.61 µM
  TGI: > 100 µM
TK-10 renal
  GI50: 4.97 µM
  TGI: > 100 µM
SF-295 CNS
  GI50: 3.16 µM
  TGI: > 100 µM
MDA-MB-231 breast
  GI50: 2.83 µM
  TGI: > 100 µM
SN12C renal
  GI50: 1.94 µM
  TGI: 6.59 µM
SF-268 CNS
  GI50: 3.65 µM
  TGI: > 100 µM
SK-MEL-2 melanoma
  GI50: 3.7 µM
  TGI: 25.3 µM
UO-31 renal
  GI50: 2.2 µM
  TGI: > 100 µM
HL-60(TB) leukemia
  GI50: 2.14 µM
  TGI: 7.61 µM
T-47D breast
  GI50: 2.96 µM
  TGI: > 100 µM
SK-OV-3 ovarian
  GI50: 4.2 µM
  TGI: > 100 µM
SNB-75 CNS
  GI50: 1.7 µM
  TGI: 3.62 µM
HCT-116 colon
  GI50: 2.73 µM
